Assay results: patent US20160158200A1, “Combinations of Hepatitis C Virus Inhibitors” (priority 2013, published 2016)

test system: HCV genotype-1a variant with glutamine 30 changed to glutamate in the NS5A protein; assay type: cell-based; conditions: test compound titrated with BMS-790052 fixed at 200 nM; genotype 1a Q30E replicon
How it was run: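 Synergy was assessed by combining several fixed amounts of an NS5A-targeting compound with a titration of the second compound of interest.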

| SMILES | Fold-Synergistic 1a (Q30E) [fold] |
| --- | --- |
| O=C(c1ccccc1Oc1ccccc1)N1CCC[C@H]1c1ncc(-c2ccc(-c3ccc(-c4cnc([C@@H]5CCCN5C(=O)c5ccccc5Oc5ccccc5)[nH]4)cc3)cc2)[nH]1 [Compound S-114] | <10 |
| CCOC(C)(C)C(=O)C(=O)N[C@H](c1ncc(-c2ccc(-c3ccc(-c4cnc([C@@H](NC(=O)C(=O)C(C)(C)OCC)C(C)C)[nH]4)cc3)cc2)[nH]1)C(C)C [Compound P-117] | >100 |
| CC(C)[C@H](NC(=O)C1CCC(F)(F)CC1)c1ncc(-c2ccc(C#Cc3ccc4nc([C@@H](NC(=O)C5CCC(F)(F)CC5)C(C)C)[nH]c4c3)cc2)[nH]1 [Compound B51] | >100 |
| CC(C)(C)[C@H](NC(=O)C1CC(F)(F)C1)c1nc(-c2ccc(-c3ccc(-c4c[nH]c([C@@H](NC(=O)C5CC(F)(F)C5)C(C)(C)C)n4)cc3)cc2)c[nH]1 [Compound P-17] | >100 |
| CC(C)[C@H](NC(=O)C(C)(C)F)c1ncc(-c2ccc(-c3ccc(-c4cnc([C@@H](NC(=O)C(C)(C)F)C(C)(C)C)[nH]4)cc3)cc2)[nH]1 [Compound Y-48] | >100 |
| COC(=O)NC1CCCCC1C(=O)NC(c1nc(-c2ccc(-c3ccc(-c4c[nH]c(C(NC(=O)C5CCCCC5NC(=O)OC)C(C)(C)C)n4)cc3)cc2)c[nH]1)C(C)(C)C (mixture of isomers) [Compound S-275] | >100 |
| Cc1ccc(CC(=O)N[C@H](c2ncc(-c3ccc(-c4ccc(-c5cnc([C@@H](NC(=O)Cc6ccc(C)cc6)C(C)C)[nH]5)cc4)cc3)[nH]2)C(C)C)cc1 [Compound S-42] | >100 |
| CC(C)[C@H](NC(=O)c1ccc(Cl)cc1F)c1ncc(-c2ccc(-c3ccc(-c4cnc([C@@H](NC(=O)c5ccc(Cl)cc5F)C(C)C)[nH]4)cc3)cc2)[nH]1 [Compound S-93] | >100 |
| CC(C)(OCC(F)(F)F)C(=O)N[C@H](c1nc(-c2ccc(-c3ccc(-c4c[nH]c([C@@H](NC(=O)C(C)(C)OCC(F)(F)F)C(C)(C)C)n4)cc3)cc2)c[nH]1)C(C)(C)C [Compound Y-2] | >100 |
| CC(C)CC(=O)N[C@H](c1nc(-c2ccc(-c3ccc(-c4c[nH]c([C@@H](NC(=O)CC(C)C)C(C)(C)C)n4)cc3)cc2)c[nH]1)C(C)(C)C [Compound N-117] | >100 |
| CC(C)[C@H](NC(=O)C(C)(C)n1cccn1)c1ncc(-c2ccc(-c3ccc(-c4cnc([C@@H](NC(=O)C(C)(C)n5cccn5)C(C)C)[nH]4)cc3)cc2)[nH]1 [Compound Y-25] | >100 |
| CC(C)(C)OC(=O)NC1CCCC(C(=O)NC(c2nc(-c3ccc(-c4ccc(-c5c[nH]c(C(NC(=O)C6CCCC(NC(=O)OC(C)(C)C)C6)C(C)(C)C)n5)cc4)cc3)c[nH]2)C(C)(C)C)C1 (mixture of isomers) [Compound S-266] | >100 |
| CC(C)(CF)[C@H](NC(=O)C1CCC(F)(F)CC1)c1ncc(-c2ccc(-c3ccc(-c4cnc([C@@H](NC(=O)C5CCC(F)(F)CC5)C(C)(C)CF)[nH]4)cc3)cc2)[nH]1 [Compound Y-69] | >100 |
| COC(=O)N1C2CCC1(C(=O)N[C@H](c1nc(-c3ccc(-c4ccc(-c5c[nH]c([C@@H](NC(=O)C67CCC(CC6)N7C(=O)OC)C(C)(C)C)n5)cc4)cc3)c[nH]1)C(C)(C)C)CC2.O=C(O)C(F)(F)F.O=C(O)C(F)(F)F [Compound W-117] | >100 |
| COCC(C)(C)C(=O)N[C@H](c1nc(-c2ccc(-c3ccc(-c4c[nH]c([C@@H](NC(=O)C(C)(C)COC)C(C)(C)C)n4)cc3)cc2)c[nH]1)C(C)(C)C [Compound P-12] | >100 |
| CC(C)CC(=O)NC(C)(C)c1ncc(-c2ccc(-c3ccc(-c4cnc(C(C)(C)NC(=O)CC(C)C)[nH]4)cc3)cc2)[nH]1.O=C(O)C(F)(F)F.O=C(O)C(F)(F)F [Compound N-26] | <10 |
| CCCCOC(=O)N[C@H](c1ncc(-c2ccc(-c3ccc(-c4cnc([C@@H](NC(=O)OCCCC)C(C)C)[nH]4)cc3)cc2)[nH]1)C(C)C [Compound S-209] | >100 |
| CC(C)(C)C(=O)N[C@H](c1ncc(C#Cc2ccc3cc(-c4cnc([C@@H](NC(=O)C(C)(C)C)C(C)(C)C)[nH]4)ccc3c2)[nH]1)C(C)(C)C [Compound B2] | >100 |
| CC(C)(C)[C@H](NC(=O)C1(C(=O)N2CCC(F)(F)CC2)CC1)c1nc(-c2ccc(-c3ccc(-c4c[nH]c([C@@H](NC(=O)C5(C(=O)N6CCC(F)(F)CC6)CC5)C(C)(C)C)n4)cc3)cc2)c[nH]1 [Compound P-148] | >100 |
| CC(C)OC(=O)NC(C)(C)C(=O)N[C@H](c1nc(-c2ccc(-c3ccc(-c4c[nH]c([C@@H](NC(=O)C(C)(C)NC(=O)OC(C)C)C(C)(C)C)n4)cc3)cc2)c[nH]1)C(C)(C)C [Compound Q-3] | >100 |
| CC(C)[C@H](NC(=O)Cc1ccccc1Cl)c1ncc(-c2ccc(-c3ccc(-c4cnc([C@@H](NC(=O)Cc5ccccc5Cl)C(C)C)[nH]4)cc3)cc2)[nH]1 [Compound S-38] | >100 |
| CC(C)(F)C(NC(=O)C1CCC(F)(F)CC1)c1nc(-c2ccc(-c3ccc(-c4c[nH]c(C(NC(=O)C5CCC(F)(F)CC5)C(C)(C)F)n4)cc3)cc2)c[nH]1 (single isomer, unassigned) [Compound N-106C] | >100 |
| CC(C)[C@H](NC(=O)c1ccccc1N(C)C)c1ncc(-c2ccc(-c3ccc(-c4cnc([C@@H](NC(=O)c5ccccc5N(C)C)C(C)C)[nH]4)cc3)cc2)[nH]1 [Compound S-91] | >100 |
| CC(C)[C@H](NC(=O)c1ccc(Cl)c(Cl)c1)c1ncc(-c2ccc(-c3ccc(-c4cnc([C@@H](NC(=O)c5ccc(Cl)c(Cl)c5)C(C)C)[nH]4)cc3)cc2)[nH]1 [Compound S-75] | >100 |
| COC(=O)N(C)C1(C(=O)N[C@H](c2ncc(C#Cc3ccc4cc(-c5cnc([C@@H](NC(=O)C6(N(C)C(=O)OC)CC6)C(C)(C)C)[nH]5)ccc4c3)[nH]2)C(C)(C)C)CC1 [Compound B5] | >100 |
| CC(C)(C)C(NC(=O)C1(C)CC1(F)F)c1nc(-c2ccc(-c3ccc(-c4c[nH]c(C(NC(=O)C5(C)CC5(F)F)C(C)(C)C)n4)cc3)cc2)c[nH]1 (single isomer, unassigned) [Compound L-58b] | >100 |
| CC(C)(C)[C@H](NC(=O)C1(COCc2ccccc2)COC1)c1nc(-c2ccc(-c3ccc(-c4c[nH]c([C@@H](NC(=O)C5(COCc6ccccc6)COC5)C(C)(C)C)n4)cc3)cc2)c[nH]1 [Compound L-124] | >100 |
| CC1(C(=O)N[C@H](c2nc(-c3ccc(-c4ccc(-c5c[nH]c([C@@H](NC(=O)C6(C)CCCCC6O)C(C)(C)C)n5)cc4)cc3)c[nH]2)C(C)(C)C)CCCCC1O (single isomer, unassigned) [Compound Y-93] | >100 |
| CC(C)(C)OC(=O)N1CCCC1C(=O)N[C@H](c1nc(-c2ccc(-c3ccc(-c4c[nH]c([C@@H](NC(=O)C5CCCN5C(=O)OC(C)(C)C)C(C)(C)C)n4)cc3)cc2)c[nH]1)C(C)(C)C (stereo partly drawn) [Compound W-86] | >100 |
| CC1([C@H](NC(=O)C2(N3CCC(F)(F)CC3)COC2)c2nc(-c3ccc(-c4ccc(-c5c[nH]c([C@@H](NC(=O)C6(N7CCC(F)(F)CC7)COC6)C6(C)CC6)n5)cc4)cc3)c[nH]2)CC1 [Compound W-62] | >100 |
